Experimental data: PMC5643135, “Crystallographic and thermodynamic characterization of phenylaminopyridine bisphosphonates binding to human farnesyl pyrophosphate synthase” (PLoS ONE, 2017)

Target: T1, human farnesyl pyrophosphate synthase (hFPPS) (Homo sapiens, UniProt P14324)
T1 construct: gene FDPS; purified protein, homodimer, subunit 42 kDa
T1 sequence (P14324 1-353 isoform P14324-2): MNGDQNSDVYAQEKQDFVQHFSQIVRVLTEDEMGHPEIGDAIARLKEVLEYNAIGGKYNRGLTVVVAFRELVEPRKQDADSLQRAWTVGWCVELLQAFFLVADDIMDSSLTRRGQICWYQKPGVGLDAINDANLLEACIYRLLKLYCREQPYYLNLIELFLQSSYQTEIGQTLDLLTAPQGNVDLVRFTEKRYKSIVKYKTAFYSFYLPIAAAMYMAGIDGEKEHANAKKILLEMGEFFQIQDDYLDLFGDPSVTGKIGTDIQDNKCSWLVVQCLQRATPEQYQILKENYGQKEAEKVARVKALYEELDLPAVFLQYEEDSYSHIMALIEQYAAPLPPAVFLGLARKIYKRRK
Test: ITC, one-site model
Format: binding
Description: ITC, one-site model on human farnesyl pyrophosphate synthase (hFPPS)

Compound: O=P(O)(O)C(Nc1cncc(-c2ccc(OC3CC3)cc2)c1)P(=O)(O)O [JDS05120]
- Kd: 0.12 ± 0.036 µM
